{"source": "patent US20220031800A1", "about": "“PEPTIDES FOR TREATING NON-EXUDATIVE MACULAR DEGENERATION AND OTHER DISORDERS OF THE EYE” (Allegro Pharmaceuticals, LLC, priority 2019, published 2022)", "key": {"[1]": {"experiment": "Trypan blue viability of human RPE cells (ARPE-19) exposed to hydrogen peroxide", "format": "cell-based", "details": "human, ARPE-19 cells (human RPE cells); 100 μM H2O2 alone, 8 hours; read-out: Reduction of cell viability", "procedure": "Purpose: Investigate cytoprotective properties of risuteganib in human RPE cells (ARPE-19) exposed to hydrogen peroxide, which is a reactive oxygen species that can induce cell death at elevated levels. Methods: ARPE-19 cells were cultured in laminin-coated trans-wells for 2 weeks to induce differentiation. Cells were then exposed to the experimental conditions: […]"}, "primary human RPE cells [2]": {"tested_on": "primary human RPE cells", "experiment": "Mitochondrial membrane potential (JC-1) in primary human RPE cells exposed to hydroquinone", "format": "cell-based", "details": "HQ 125-180 uM, 3-4 hours", "procedure": "(§1) Purpose: To determine if risuteganib protects against hydroquinone (HQ)-mediated cell injury, elevated ROS level and reduced mitochondrial membrane potential (Δψm) in cultured human RPE cells. Elevated ROS levels increase oxidative stress in the cells, leading to reduced cell health and cell death. Loss of ΔΨm is a marker for early cell death. Methods: Primary human RPE cells were seeded on collagen-coated 96-well plates in triplicates at 8K, 10K and […] cells/well, respectively. Cells reached 80% to 100% confluence 24 hours after plating, and confluent cells were then grown for an additional 4 or 5 days until growth was density arrested. On day 6 after plating, cells in the plate upper half were loaded with 20 μM CM-H2DCFDA (measures ROS level) and in the plate lower half with 10 μM JC-1 (measures Δψm) for 30 minutes at 37° C. […] For the ROS and Δψm assays, a fluorescence plate reader was used to quantify ROS production (490-nm excitation, 522-nm emission), and green monomer of JC-1 (490-nm excitation, 522-nm emission) and red JC-1 aggregate (535-nm excitation, 590-nm emission), respectively. […] The WST reagent was quantified with a plate reader at 440 nm and a reference wavelength at 690 nm. Data were normalized to untreated control as 100% and were expressed as the mean±SD."}, "primary human RPE cells [3]": {"tested_on": "primary human RPE cells", "experiment": "ROS level (CM-H2DCFDA) in primary human RPE cells exposed to hydroquinone", "format": "cell-based", "details": "HQ 125-180 uM, 3-4 hours", "procedure": "as §1"}, "primary human RPE cells [4]": {"tested_on": "primary human RPE cells", "experiment": "WST-1 cell viability of primary human RPE cells exposed to hydroquinone", "format": "cell-based", "details": "HQ 125-180 uM, 4 hours or 5 hours", "procedure": "as §1"}, "[5]": {"experiment": "Trypan blue viability of primary mouse retinal neuron cells exposed to kainic acid", "format": "cell-based, CD1 mice", "details": "CD1, mouse; 500 μM kainic acid alone, 8 hours; read-out: Reduction of cell viability", "procedure": "(§2) Purpose: Investigate neuroprotective properties of risuteganib in primary mouse retinal neuron cells exposed to kainic acid, a neuroexcitatory compound that activates glutamate receptors, resulting in overstimulation and cell death.\nMethods: Fresh retina were collected from CD1 mice and then mechanically dissociated with sterile Pasteur pipette. Cell suspensions were then dispensed into petri dish and incubated for 6 hours. Cells were then exposed to the experimental conditions: (1) untreated control, (2) 1.0 mg/mL risuteganib, (3) 500 μM kainic acid (KA), and (4) 1.0 mg/mL risuteganib for 24 hours before 500 μM kainic acid exposure. 8 hours after kainic acid treatment, dead and live cell numbers were measured using Trypan blue exclusion assay on a hemocytometer."}, "[6]": {"experiment": "Trypan blue viability of primary mouse Müller cells exposed to kainic acid", "format": "cell-based, CD1 mice", "details": "CD1, mouse; 500 μM kainic acid alone, 48 hours; read-out: Reduction of Muller cell viability", "description": "as §2, with “Müller” for “retinal neuron”, “death. Retinal Müller cells support normal functions of neurons and their dysregulation can leads to loss of homeostasis and neuronal cell death.” for “death.”\nMethods: Fresh retina were collected from CD1 mice and then mechanically dissociated with sterile Pasteur pipette into small aggregates and seeded into 35 mm culture dishes. All cultures were first left unchanged for 5-6 days and then replenished every 3-4 days. When the cell growth had reached around 80% confluency, retinal aggregates and debris were removed by media washes to form a purified cell monolayer. Cells were then exposed to the experimental conditions: (1) untreated control, (2) 1.0 mg/mL risuteganib, (3) 500 μM kainic acid (KA), and (4) 1.0 mg/mL risuteganib for 24 hours before 500 μM kainic acid exposure. 48 hours after kainic acid treatment, dead and live cell numbers were measured using Trypan blue exclusion assay on a hemocytometer."}, "[7]": {"tested_on": "neovascularization in mice (CNV)", "details": "reproduced from US 2019/0062371; cited from earlier work"}, "[8]": {"tested_on": "human retinal Müller cells (MIO-M1)", "experiment": "Reactive oxygen species level in human Müller cells (MIO-M1)", "format": "cell-based", "details": "1× concentration (clinical dose), 24 hours", "procedure": "Purpose: To determine the effects of risuteganib and anti-VEGF drugs on reactive oxygen species (ROS) levels in cultured human retinal Müller cells (MIO-M1). Elevated ROS levels can disrupt normal cellular functions, leading to reduced cell health and possible cell death.\nMethods: The immortalized human retinal Müller cell line (MIO-M1) was obtained from the Department of Cell Biology of the University College, London. Cells were cultured in Dulbecco's Modified Eagle's Medium (DMEM) and plated in 24-well plates for 24 hours before treatment with 1× concentration of 1 mg/50 μL ALG-1001, ranibizumab, bevacizumab, or aflibercept. Dosage was based on clinical dose of each compound. The experiments were repeated 3 times with 6 replicates each. After 24 hours drug treatment, ROS level was measured using the fluorescent dye 2′,7′-dichlorodihydrofluorescein diacetate. The signals were read using the Biotek Synergy HT plate reader with EX filter in 482 nm and EM filter in 520 nm. Results were normalized to untreated control as 100%. Statistical analysis was performed in GraphPad Prism software program."}, "[9]": {"tested_on": "human retinal Müller cells (MIO-M1)", "experiment": "Mitochondrial membrane potential (JC-1) in human Müller cells (MIO-M1)", "format": "cell-based", "details": "1× concentration (clinical dose), 24 hours, vs untreated control", "procedure": "Purpose: To determine the effects of risuteganib on the mitochondrial membrane potential (ΔΨm) in cultured human retinal Müller cells (MIO-M1). Loss of ΔΨm is a marker for early cell death.\nMethods: The immortalized human retinal Müller cell line (MIO-M1) was obtained from the Department of Cell Biology of the University College, London. Cells were cultured in Dulbecco's Modified Eagle's Medium (DMEM) and plated in 24-well plates for 24 hours before treatment with 1× concentration of 1 mg/50 μL risuteganib, ranibizumab, bevacizumab, or aflibercept. Dosage was based on clinical dose of each compound. The experiments were repeated 3 times with 6 replicates each. After 24 hours drug treatment, the ΔΨm was measured using the JC-1 kit, a cationic dye that fluoresces red within the mitochondria of healthy, live cells. In the stressed or apoptotic cells, the mitochondrial membrane potential collapses and the cationic dye fluoresces green. First, cells were rinsed with fresh media and then incubated with the JC-1 reagent for 15 minutes at 37 degrees C. The dyes were then removed, and phosphate buffered saline was added to each well. The Red fluorescence (live cells) was read at EX 550 nm and EM 600 nm. The Green fluorescence (apoptotic cells) was read at EX 483 nm and EM 535 nm. The changes in ΔΨm were calculated by the ratio of red to green fluorescence. […]"}, "[10]": {"tested_on": "human retinal Müller cells (MIO-M1)", "experiment": "MTT cell viability of human Müller cells (MIO-M1)", "format": "cell-based", "details": "1× concentration (clinical dose), 24 hours, vs untreated (FIG. 18)", "procedure": "Purpose: To determine the effects of risuteganib and anti-VEGF drugs on the cell viability of cultured human retinal Müller cells (MIO-M1).\nMethods: The immortalized human retinal Müller cell line (MIO-M1) was obtained from the Department of Cell Biology of the University College, London. Cells were cultured in Dulbecco's Modified Eagle's Medium (DMEM) and plated in 96-well plates for 24 hours before treatment with 0.5×, 1× or 2× concentrations of 1 mg/50 μL risuteganib, or 1× of ranibizumab, bevacizumab or aflibercept. Dosage was based on clinical dose of each compound. The experiments were repeated 3 times with 7-8 replicates each. After 24 hours of drug treatment, MTT NAD(P)H-dependent colorimetric assay was used to assess the number of viable cells present in the cultures. Absorbance ratios were normalized to untreated control as 100%. Statistical analysis was performed in GraphPad Prism software program."}}, "data": [{"molecule": "OO", "note": "[H2O2, hydrogen peroxide, reference compound]", "values": [{"measurement": "cytotoxicity at 8 h, 100 μM", "setting": "[1]", "result": 22, "unit": "%"}]}, {"molecule": "Oc1ccc(O)cc1", "note": "[HQ, hydroquinone, reference compound]", "values": [{"measurement": "Change in Δψm compared to untreated cells", "setting": "primary human RPE cells [2]", "result": "−53", "unit": "%"}, {"measurement": "Increase in ROS levels compared to untreated cells", "setting": "primary human RPE cells [3]", "result": 78, "unit": "%"}, {"measurement": "Change in cell viability compared to untreated cells", "setting": "primary human RPE cells [4]", "result": "−82", "unit": "%"}]}, {"molecule": "C=C(C)[C@H]1CN[C@H](C(=O)O)[C@H]1CC(=O)O", "note": "[kainic acid, reference compound]", "values": [{"measurement": "cytotoxicity at 8 h, 500 μM", "setting": "[5]", "result": 42, "unit": "%"}, {"measurement": "cytotoxicity at 48 h, 500 μM", "setting": "[6]", "result": 32, "unit": "%"}]}, {"molecule": "R - G - Cys(acid)•TFA [Test Compound 1]", "values": [{"measurement": "Activity At Dose Tested", "setting": "[7]", "result": "Active"}, {"measurement": "Mean % Reduction of Retinal Neovascularization In ROP Model", "setting": "[7]", "result": "49 - FIG. 11%"}]}, {"molecule": "R- G - Cys(acid)•Acetate [Test Compound 2]", "values": [{"measurement": "Activity At Dose Tested", "setting": "[7]", "result": "Active"}, {"measurement": "Mean % Reduction of Retinal Neovascularization In ROP Model", "setting": "[7]", "result": "56 - FIG. 11%"}]}, {"molecule": "aflibercept [reference compound]", "values": [{"measurement": "Change in ROS level compared to untreated control", "setting": "[8]", "result": 29, "unit": "%"}, {"measurement": "Mitochondrial membrane potential (ΔΨm), in words", "setting": "[9]", "result": "decreased ΔΨm"}, {"measurement": "Cell viability (MTT), in words", "setting": "[10]", "result": "decreased cell viability"}]}, {"molecule": "bevacizumab [reference compound]", "values": [{"measurement": "Change in ROS level compared to untreated control", "setting": "[8]", "result": 24, "unit": "%"}, {"measurement": "Cell viability (MTT), in words", "setting": "[10]", "result": "decreased cell viability"}]}, {"molecule": "ranibizumab (antibody, chains of the INN, looked up, V domains shown, anti-VEGF agent) VH: EVQLVESGGGLVQPGGSLRLSCAASGYDFTHYGMNWVRQAPGKGLEWVGWINTYTGEPTYAADFKRRFTFSLDTSKSTAYLQMNSLRAEDTAVYYCAKYPYYYGTSHWYFDVWGQGTLVTVSS VL: DIQLTQSPSSLSASVGDRVTITCSASQDISNYLNWYQQKPGKAPKVLIYFTSSLHSGVPSRFSGSGSGTDFTLTISSLQPEDFATYYCQQYSTVPWTFGQGTKVEIK", "values": [{"measurement": "Change in ROS level compared to untreated control", "setting": "[8]", "result": 37, "unit": "%"}, {"measurement": "Cell viability (MTT), in words", "setting": "[10]", "result": "decreased cell viability"}]}]}
